{"source": "patent US9931373B2", "about": "“Method of reducing cancer cell proliferation by administering recombinant alpha-fetoprotein” (priority 2005, dated 2018)", "molecules": {"B1": {"name": "embrAFP: purified AFP of embryonal origin, obtained from embryonic serum (protein, UniProt P02771 19-609, looked up)", "Alpha-fetoprotein": "RTLHRNEYGIASILDSYQCTAEISLADLATIFFAQFVQEATYKEVSKMVKDALTAIEKPTGDEQSSGCLENQLPAFLEELCHEKEILEKYGHSDCCSQSEEGRHNCFLAHKKPTPASIPLFQVPEPVTSCEAYEEDRETFMNKFIYEIARRHPFLYAPTILLWAARYDKIIPSCCKAENAVECFQTKAATVTKELRESSLLNQHACAVMKNFGTRTFQAITVTKLSQKFTKVNFTEIQKLVLDVAHVHEHCCRGDVLDCLQDGEKIMSYICSQQDTLSNKITECCKLTTLERGQCIIHAENDEKPEGLSPNLNRFLGDRDFNQFSSGEKNIFLASFVHEYSRRHPQLAVSVILRVAKGYQELLEKCFQTENPLECQDKGEEELQKYIQESQALAKRSCGLFQKLGEYYLQNAFLVAYTKKAPQLTSSELMAITRKMAATAATCCQLSEDKLLACGEGAADIIIGHLCIRHEMTPVNPGVGQCCTSSYANRRPCFSSLVVDETYVPPAFSDDKFIFHKDLCQAQGVALQTMKQEFLINLVKQKPQITEEQLEAVIADFSGLLEKCCQGQEQEVCFAEEGQKLISKTRAALGV"}}, "key": {"[1]": {"tested_on": "Human breast cancer cells MCF-7", "test": "Combined treatment of MCF-7 cells with chemotherapeutic agents and rhAFP, MTT or H3-thymidine", "format": "cell-based", "conditions": "MCF-7, 72 hrs, agent with addition of 0.1 mg/ml of rhAFP, suboptimal doses, FIG. 8", "protocol": "Cell proliferation was assessed by H3-thymidine incorporation assay or by MTT technique.\nHuman breast cancer cells MCF-7 were plated onto 96-well plastic wells (Costar) in 10^4 cells/ml in DMEM medium with addition of 2% fetal calf serum and were treated during 72 hrs with one of chemotherapeutic agents: doxorubicin, cysplatin, etoposide, metatrexate or those with addition of 0.1 mg/ml of rhAFP. Cytotoxic effect was estimated by MTT assay or H3-thymidine incorporation assay. It was observed synergistic enhance of the total tumor-suppressive effect in suboptimal doses of all agents in the presence of AFP (FIG. 8)."}, "[2]": {"tested_on": "syngeneic leukemia cells P388", "test": "Syngeneic acute leukemia P388 in BDF1 mice, survival over 30 days", "format": "in vivo", "conditions": "for T (survival, days): single injection", "excerpt": "We have studied the effect of combined treatment with AFP+Dox of acute leukemia in mice BDF1 with transplanted intrapleurally syngeneic P388 leukemia cells. BDF-1 mice (84 male, 28 mice per treatment) were implanted with lethal dose of 12×10^6 syngeneic leukemia cells P388 in the pleural region. Animals were subjected to monotherapy with Dox and combined therapy with rhAFP/Dox upon simultaneous single injection of drugs in various doses. Animal survival was compared over 30 days."}, "rhAFP": {"target": "T1, rhAFP (Homo sapiens, UniProt P02771)", "T1 construct": "pre-pro secretion region of yeast MFalpha1 (secretion leader, removed on secretory processing) (N, cleaved yes); made in house; host or cells: Saccharomyces cerevisiae YBS723/pKX (secreted into the culture liquid)", "T1 sequence (P02771 20-609)": "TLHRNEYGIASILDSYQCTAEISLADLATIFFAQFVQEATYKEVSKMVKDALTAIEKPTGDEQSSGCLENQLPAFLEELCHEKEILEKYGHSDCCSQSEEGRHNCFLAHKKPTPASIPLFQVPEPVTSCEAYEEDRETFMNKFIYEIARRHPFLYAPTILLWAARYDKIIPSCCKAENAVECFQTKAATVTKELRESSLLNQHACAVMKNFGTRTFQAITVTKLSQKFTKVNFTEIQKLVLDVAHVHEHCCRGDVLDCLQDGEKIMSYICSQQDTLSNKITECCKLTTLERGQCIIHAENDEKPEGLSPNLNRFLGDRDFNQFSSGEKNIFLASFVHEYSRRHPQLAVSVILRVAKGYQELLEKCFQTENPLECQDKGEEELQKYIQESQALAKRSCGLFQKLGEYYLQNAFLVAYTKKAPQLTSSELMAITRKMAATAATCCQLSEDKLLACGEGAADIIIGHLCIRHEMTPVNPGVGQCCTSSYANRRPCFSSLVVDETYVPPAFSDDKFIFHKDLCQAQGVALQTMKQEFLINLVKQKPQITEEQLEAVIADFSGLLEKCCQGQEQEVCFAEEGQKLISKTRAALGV", "test": "Formation of noncovalent complexes with rhAFP, absorption spectra and Sephadex G-25", "format": "binding", "conditions": "steady-state absorption; curcumin 30 μM, rhAFP 5 μM to 40 μM, FIG. 12A", "protocol": "Absorption spectra of aqueous solutions containing 30 μM of curcumin and various doses of rhAFP: (1) 30 μM of curcumin; (2) 30 μM of curcumin+20 μM rhAFP; (3) 30 μM of curcumin+40 μM rhAFP. Panel at the top (A): absorption spectra of non-covalent complex of rhAFP/curcumin after chromatography through a column with Sephadex G-25.\nPhytochemicals are nonnutritive components of plants that are currently being studies in chemoprevention and combined therapy of cancer. […] Other plant-derived tumoricidal compounds—flavonoids, isoflavonoids, flavons, flavanones, isoflavanones have been widely investigated for their ability to suppress tumor growth in vitro. Some of them display significant homology with steroids and mimic reveal antagonistic or agonistic activity in mammals. Ability of AFP to bind isoflavanoids was documented by various researches (Deutsch H. F, 1991, Adv. Canc. Res. 56, 253-312). […] The absorption spectra of solutions containing curcumin and rhAFP were followed keeping concentration of curcumin constant 30 μM and rhAFP varied from 5 μM to 40 μM. […] FIG. 12A gives the absorption spectral changes in curcumin in the presence of rhAFP in the wavelength range of 250-550 nm. […] Whereas after addition of rhAFP the maximum of absorbance of curcumin blue-shifted from 426 to 350 nm (curve 3). […]"}, "tumor cells": {"tested_on": "tumor cells", "test": "Combined administration of rhAFP and plant-derived compounds, suppression of tumor cell growth", "format": "cell-based", "conditions": "FIG. 12B, C"}, "[3]": {"tested_on": "cells of B-cellular lymphoma Raji", "test": "Suppression of growth of Raji cells in vitro, [H3]-thymidine incorporation", "format": "cell-based, human", "conditions": "12 hours with AFP, dose-dependent, FIG. 5", "protocol": "The functional activity of rAFP and the modified forms thereof were determined according to its capability of suppressing the growth of cells of B-cellular lymphoma Raji in the culture in vitro, as earlier described (Semenkova, L. 1997, Tumor Biol. 18, 261-274; Dudich E. I., et al., 1998, Tumor Biol. 198, 30-40). Preliminarily washed by a fresh medium, Raji cells were placed into each cell of a 96-alverolar plate according to 5×10^3 in 0.1 ml of a medium RPMI-1640 in the presence of a 10% fetal calf serum, then different doses of AFP were added for 12 hours. Proliferation of the cells was measured by a standard method by the introduction of [H^3]-thymidine during the last 4 hours of culturing. For comparison, the dose-dependent reactivity was studies for two samples of AFP of embryonal origin embrAFP and yeast rAFP (FIG. 5). […] Similarly, in order to determine the activity to preparations on the base of AFP in vitro, any other lines of cancer cells may be used that are sensitive to the suppressive action of AFP, such as human hepatocarcinoma HepG2, breast cancer MCF-7, prostate cancer LnCap, myeloblastoma U-937 and others (Semenkova, L. 1997, Tumor Biol. 18, 261-274; Dudich E. I., et al., 1998, Tumor Biol. 198, 30-40)."}}}
{"molecule": "CN(Cc1cnc2nc(N)nc(N)c2n1)c1ccc(C(=O)N[C@@H](CCC(=O)O)C(=O)O)cc1", "note": "[metatrexate]", "values": [{"measurement": "total tumor-suppressive effect of agent together with rhAFP", "setting": "[1]", "result": "significant synergistic tumor-suppression"}]}
{"molecule": "COc1cccc2c1C(=O)c1c(O)c3c(c(O)c1C2=O)C[C@@](O)(C(=O)CO)C[C@@H]3O[C@H]1C[C@H](N)[C@H](O)[C@H](C)O1", "note": "[Dox, doxorubicin]", "values": [{"measurement": "Survival more 30 days", "setting": "[2]; Dox 3.0 mg/kg", "result": 0}, {"measurement": "T/C %", "setting": "[2]; Dox 3.0 mg/kg", "result": 303, "unit": "%"}, {"measurement": "T (survival, days)", "setting": "[2]; Dox 3.0 mg/kg", "result": "[13.9/17.1] 19.7 days"}, {"measurement": "Survival more 30 days", "setting": "[2]; Dox 5.0 mg/kg", "result": 0}, {"measurement": "T/C %", "setting": "[2]; Dox 5.0 mg/kg", "result": 315, "unit": "%"}, {"measurement": "T (survival, days)", "setting": "[2]; Dox 5.0 mg/kg", "result": "[17.0/22.4] 20.5 days"}, {"measurement": "Survival more 30 days", "setting": "[2]; Dox 1.o mg/kg", "result": 0}, {"measurement": "T/C %", "setting": "[2]; Dox 1.o mg/kg", "result": 238, "unit": "%"}, {"measurement": "T (survival, days)", "setting": "[2]; Dox 1.o mg/kg", "result": "6.5 [6.2/6.8] 15.5 days"}, {"measurement": "total tumor-suppressive effect of agent together with rhAFP", "setting": "[1]", "result": "significant synergistic tumor-suppression"}]}
{"molecule": "COc1cc([C@@H]2c3cc4c(cc3[C@@H](O[C@@H]3O[C@@H]5CO[C@@H](C)O[C@H]5[C@H](O)[C@H]3O)[C@H]3COC(=O)[C@H]23)OCO4)cc(OC)c1O", "note": "[etoposide]", "values": [{"measurement": "total tumor-suppressive effect of agent together with rhAFP", "setting": "[1]", "result": "significant synergistic tumor-suppression"}]}
{"molecule": "O=c1c(-c2ccc(O)cc2)coc2cc(O[C@@H]3O[C@H](CO)[C@@H](O)[C@H](O)[C@H]3O)cc(O)c12", "note": "[genistin]", "values": [{"measurement": "formation of noncovalent complexes with rhAFP", "setting": "rhAFP", "result": "form noncovalent complexes"}, {"measurement": "total tumor suppressive effect upon combined treatment with rhAFP", "setting": "tumor cells", "result": "significant enhance of the total tumor suppressive effect"}]}
{"molecule": "COc1cc(/C=C/C(=O)CC(=O)/C=C/c2ccc(O)c(OC)c2)ccc1O", "note": "[curcumin]", "values": [{"measurement": "formation of noncovalent complexes with rhAFP", "setting": "rhAFP", "result": "form noncovalent complexes"}, {"measurement": "total tumor suppressive effect upon combined treatment with rhAFP", "setting": "tumor cells", "result": "significant enhance of the total tumor suppressive effect"}]}
{"molecule": "N.N.[Cl][Pt][Cl]", "note": "[cysplatin]", "values": [{"measurement": "total tumor-suppressive effect of agent together with rhAFP", "setting": "[1]", "result": "significant synergistic tumor-suppression"}]}
{"molecule": "B1", "values": [{"measurement": "cytostatic activity, inhibition of growth of Raji cells", "setting": "[3]", "result": "expressed cytostatic activity"}]}
